“And” between values parts separate entries of the source, which are not always exact repeats. Identical values can stand only once.
Tests used:
[1] = molecular target: T1, XPO1 (Homo sapiens, UniProt O14980); assay: XPO1 phenotypic reporter assay in HeLa NLSSV40-AcGFP-NESPKI cells; type: cell-based; settings: HeLa GFP reporter cell line; 2 h treatment; mean ± SEM of two independent experiments; read-out: XPO1 inhibition IC50
T1 construct: the compounds were assayed in a reporter cell line based on the subcellular localization of a XPO1-dependent GFP reporter cargo protein; endogenous in cells; host or cells: HeLa cells stably transfected with the NLSSV40-AcGFP-NESPKI reporter (only the reporter cargo is transfected, not XPO1)
T1 sequence (O14980 whole entry): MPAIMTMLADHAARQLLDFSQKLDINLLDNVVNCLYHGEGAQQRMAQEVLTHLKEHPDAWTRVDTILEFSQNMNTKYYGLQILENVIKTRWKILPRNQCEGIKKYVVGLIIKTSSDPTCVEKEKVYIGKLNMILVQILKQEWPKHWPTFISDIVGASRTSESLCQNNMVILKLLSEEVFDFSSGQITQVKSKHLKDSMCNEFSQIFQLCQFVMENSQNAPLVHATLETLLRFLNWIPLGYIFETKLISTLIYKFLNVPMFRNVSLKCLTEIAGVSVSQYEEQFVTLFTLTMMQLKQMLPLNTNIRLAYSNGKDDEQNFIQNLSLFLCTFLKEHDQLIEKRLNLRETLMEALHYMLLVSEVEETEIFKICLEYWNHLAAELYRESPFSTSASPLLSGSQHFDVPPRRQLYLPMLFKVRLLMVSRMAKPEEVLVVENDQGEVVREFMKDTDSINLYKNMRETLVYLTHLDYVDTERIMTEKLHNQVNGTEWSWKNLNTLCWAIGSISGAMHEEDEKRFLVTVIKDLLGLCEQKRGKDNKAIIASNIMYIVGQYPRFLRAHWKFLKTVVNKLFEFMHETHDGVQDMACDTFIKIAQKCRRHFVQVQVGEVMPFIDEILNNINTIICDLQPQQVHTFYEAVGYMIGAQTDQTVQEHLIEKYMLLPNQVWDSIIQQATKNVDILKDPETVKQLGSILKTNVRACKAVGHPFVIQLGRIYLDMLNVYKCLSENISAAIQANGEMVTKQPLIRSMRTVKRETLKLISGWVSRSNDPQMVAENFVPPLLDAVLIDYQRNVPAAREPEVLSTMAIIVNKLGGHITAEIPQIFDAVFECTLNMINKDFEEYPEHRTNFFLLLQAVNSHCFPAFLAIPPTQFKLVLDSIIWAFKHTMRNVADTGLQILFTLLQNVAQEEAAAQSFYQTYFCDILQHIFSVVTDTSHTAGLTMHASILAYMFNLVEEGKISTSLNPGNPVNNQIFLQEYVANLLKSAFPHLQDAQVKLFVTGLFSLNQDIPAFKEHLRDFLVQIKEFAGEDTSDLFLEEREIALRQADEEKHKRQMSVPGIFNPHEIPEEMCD
Method: Stably transfected HeLa NLSSV40-AcGFP-NESPKI were cultured as described in Vercruysse et al.
To study the XPO1-mediated nuclear export, stably transfected HeLa NLSSV40-AcGFP-NESPKI reporter cells were seeded at 8000 cells per well in 96-well all clear tissue culture plates (TPP). After overnight incubation, cells were treated with different doses of compound or solvent (DMSO) for 2 h and then fixed and counterstained with DAPI. Fluorescence was read on an ArrayScan XTI High Content Reader (Thermo Fisher Scientific, Waltham, MA, USA). Nuclear and cytoplasmic compartments were segmented and their average pixel intensities in the green channel were quantitated employing the HCS Studio software. Genedata Screener software was used for dose-response curve fitting, and calculation of EC50 values was based on the percentage of cells having a predominant nuclear localisation (ratio of nuclear to cytoplasmic signal equal or above 1.4) of the reporter construct. Compounds were tested in two independent experiments and represented as mean ± SEM.

[2] = GSH reactivity assay (HPLC, DTNB quench); type: physicochemical; settings: 500 µM compound, 5 mM GSH, 37 °C; for Reaction with GSH (hetero-Michael addition), qualitative: PBS pH 7.4 with EDTA:DMSO 1:1; for Reversibility of GSH adducts (retro-Michael), qualitative: longer incubation
Method: In order to determine if these chalcones could react with thiol groups through a hetero-Michael addition reaction, a few selected compounds (9, 10, 13 and 18) were incubated with glutathione (GSH). After different incubation times, the reactions were quenched by adding 5,5′-dithiobis(2-nitrobenzoic acid) (DTNB, Ellman´s reagent) (1:1 ratio with respect to the initial concentration of GSH). The course of the reaction was followed by HPLC, adapting reported procedures. […] Thus, although this assay is only qualitative, the tendency observed among these chalcones nicely fits the reactivity described for α-X-2´3,4,4´-tetramethylchalcones.
A 500 µM sample of the tested compound was incubated with 5 mM reduced L-glutathione for 24 h at 37 °C with a final volume of 200 μL. As a solvent system, 20 mM PBS buffer pH 7.4 with 2 mM EDTA:DMSO (1:1) was used. To perform the assay, stock solutions of 20 mM of the chalcones (9, 10, 13 and 18) and 15 mM of reduced L-glutathione were freshly prepared for every experiment and then diluted properly to give the final electrophile:nucleophile ratio (1:10). A 5 mM solution of 5,5′-dithiobis(2-nitrobenzoic acid) (DTNB) was prepared in the same solvent system to quench the reaction. After different time points (10 min, 1 h, 4 h and 24 h), an aliquot of 20 μL of the incubation mixture was quenched by adding 20 μL of the DTNB stock solution, mixed thoroughly, and then analyzed by HPLC. HPLC analysis was performed in Agilent 1120 compact LC, column ACE 5 C18-300 (15 cm × 4.6 mm); UV detection was performed at λ = 254 nm. Solvents used were acetonitrile for bottle A and H2O (containing 0.05% TFA) for bottle B, and the flow rate was 1mL/min. The gradients used were: (A) incubations with chalcone 9: from 10% to 80% of solvent A in 10 min; (B) incubations with chalcones 10 and 18: from 10% to 100% of solvent A in 10 min. The new peaks were analysed by LC-MS. As controls, a 500 μM solution of the α,β-unsaturated compound was also analysed, and a 5 mM reduced L-glutathione solution was quenched by adding DNTB at the same time points. In general, after 6 h of incubation, no GSH was detected.

[3] = system: panel of cancer cell lines; assay: Antiproliferative activity, panel of cancer cell lines; type: cell-based; settings: for Fold less potent than KPT-330 (antiproliferative IC50): all cell lines tested; for Antiproliferative activity, in words: panel of cancer cell lines
Method: (§1) Adherent cell lines HCT-116, NCI-H460 and Hap-1 cells were seeded at a density between 500 and 1500 cells per well in 384-well tissue culture plates (Greiner). After overnight incubation, cells were treated with different concentrations of the test compounds. Suspension cell lines HL-60, K-562, Z-138 and DND-41 were seeded at densities ranging from 2500 to 5500 cells per well in 384-well culture plates containing the test compounds at the same concentration points.

[4] = system: NCI-H460 cells; assay: Cell proliferation assay (IncuCyte confluence), NCI-H460; type: cell-based; settings: Homo sapiens; NCI-H460 lung carcinoma; 72 h; mean of two independent experiments ± SEM; read-out: IC50 antiproliferative activity NCI-H460
Method: (§2) Cancer cell lines HCT-116, NCI-H460, HL-60, K-562 and Z-138 were acquired from the American Type Culture Collection (ATCC, Manassas, VA, USA). The DND-41 cell line was purchased from the Deutsche Sammlung von Mikroorganismen und Zellkulturen (DSMZ Leibniz-Institut, Brunswick, Germany), and the HAP-1 cell line was ordered from Horizon Discovery (Horizon Discovery Group, Water Beach, UK). All cell lines were cultured as recommended by the suppliers. Culture media were purchased from Gibco Life Technologies and supplemented with 10% fetal bovine serum (HyClone, GE Healthcare Life Sciences, Chicago, Illinois, USA).
as §1

[5] = system: HL-60 cells; assay: Cell proliferation assay (IncuCyte confluence), HL-60; type: cell-based; settings: Homo sapiens; HL-60 acute myeloid leukemia; 72 h; mean of two independent experiments ± SEM; read-out: IC50 antiproliferative activity HL-60
Method: as §2, §1

IC50 [1]	Reaction with GSH (hetero-Michael addition), qualitative [2]	Fold less potent than KPT-330 (antiproliferative IC50) [3]	IC50 [4] [µM]	IC50 [5] [µM]	Compound	Reversibility of GSH adducts (retro-Michael), qualitative [2]	Antiproliferative activity, in words [3]
2.5 µM and 2.46 µM	quickly reacted with GSH	5- to 30 fold	2.1 ± 0.1	2 ± 0.5	O=C(/C=C/c1cncnc1)c1ccc2ccccc2c1 [Compound 9, (E)-1-(Naphthalen-2-yl)-3-(pyrimidin-5-yl)prop-2-en-1-one]	underwent a retro-Michael addition reaction	single digit µM IC50 values
0.55 ± 0.19 µM	quickly reacted with GSH	5- to 30 fold	3.5 ± 1.5	2.2 ± 0.3	COc1cc(OC)cc(C(=O)/C=C/c2cncnc2)c1 [Compound 10, (E)-1-(3′,5′-Dimethoxyphenyl)-3-(pyrimidin-5′’-yl)prop-2-en-1-one]	underwent a retro-Michael addition reaction	single digit µM IC50 values

— PMC8621101, “Inhibition of XPO-1 Mediated Nuclear Export through the Michael-Acceptor Character of Chalcones” (Pharmaceuticals, 2021)
